pIC50: −log10 of the molar value.
Columns and labels:
[1] = biological target: BB7 RNA-dependent RNA polymerase hepatitis C virus protein (Con1 HCV sequence) (Hepatitis C virus genotype 1b, UniProt Q9WMX2); assay: Hepatitis C polymerase (BB7) inhibition; assay type: biochemical
Text: For purposes of this invention, the term “BB7” denotes an RNA-dependent RNA polymerase hepatitis C virus protein sequence which is derived from HCV replicon. A discussion of BB7 and related technology can be found in Blight, K. et al. (2000) Science 290:1972-1974. BB7 can be licensed from Apath, LLC (893 North Warson Road, Saint Louis Mo. 63141, USA). BB7 is also referred to as Con1 HCV sequence and discussions of Con1 can be found in the following references: Lohmann, V. et al. (1999) Science 285:110-113; Pietschmann, T. et al. (2001) J. Virol. […]:1252-1264; Lohmann, V. et al. (2001) J. Virol. 75:1437-1449.
(§1) The ability of the compounds of the present invention to inhibit Hepatitis C Polymerase was established by the following experimental procedure:
(§2) • 0.5M Na Phosphate buffer. Per liter, weigh 134 gr Na2HPO4.7H2O, add water to 900 ml. Adjust pH to 7.0 with phosphoric acid. Top off with water to 1 L. • Dilute nucleotides 1:1000 to 10 μM (GTP and CTP) or 1:100 to 100 μM (ATP and UTP) into RNase free water. Procedure: • (1) Compounds 10 μl at […] in 15% dimethylsulfoxide (DMSO) When starting from 100 μg/ml compound stock in 1% DMSO: Dispense 5 μl 30% DMSO per well Dispense 5 μl compound (100 μg/ml) per well. When starting from 50 μg/ml compound stock in 15% DMSO: Add 10 μl compound per well.
(§3) Add 20 μl enzyme mix into each well of the assay plate. Incubate compound and enzyme at room temperature for 15 minutes • (3) Template mix—prepare ahead
(§4) Spin down a tube of RNA (5 μg/tube stored in 75% ethanol and 0.3 M sodium acetate) in a microcentrifuge for 20 minutes at 4° C. One tube is enough for 1-1.5 plates. Remove as much ethanol from the tube as possible by inverting the tube. Be gentle, pellet RNA may not adhere to the tube. Vacuum dry the RNA. Resuspend the RNA by adding 1 ml of DEPC water, close the cap of the tube tightly. To dissolve RNA, incubate RNA solution on ice for ˜60 minutes and gently vortex. Spin briefly to ensure all RNA solution is down to the bottom of the tube before opening cap. Gently transfer RNA solution into a 5 ml or larger tube. Add another 3 ml of DEPC water (total 4 ml of volume).
(§5) Add the following volumes of reagents
(§6) Add 20 μl template mix per reaction (i.e. 20 ng of pOF per reaction or ˜3 nM) • (4) Incubate reaction at room temperature (22-25° C.) for 2 hours. • (5) Stop reaction by adding 50 μl of 170 mM EDTA.
(§7) Final concentration of EDTA is 85 mM. • (6) Prewet filters of Millipore multiscreen assay plate by adding 200 μl of 0.5 M sodium phosphate buffer, pH 7.0 into each well. Let stand at room temperature for 2-3 minutes. • (7) Place the multiscreen filter plate onto a Millipore Manifold and turn on vacuum to allow buffer to flow through. Turn off vacuum. Transfer 80 μl of the reaction product into each well of the filter plate. Let stand for 2-3 minutes. Turn on vacuum to filter reaction product. • (8) Turn off vacuum. Add 200 μl of 0.5 M sodium phosphate buffer, pH 7.0 into each well to wash filter. Turn on vacuum.
(§8) Repeat step (8) three more times. • (9) Remove polypropylene bottom. Spot dry filter at the bottom with paper towel. Air dry filter plate on a bench for 1 hour. Add 40 μl Super Mix scintillant. Seal top of the plate with a tape. Place plate into a Packard carrier or micro-beta carrier. • (10) Count plate using a Packard Topcount or micro-beta counter. Count (for example using Program 10) for ^33P in Top count or ^33P program in micro-beta.
(§9) See, Ferrari et al. 1999. J. Virology 73:1649-1654: “Characterization of soluble Hepatitis C virus RNA-dependent RNA polymerase expressed in E. coli and Takamizawa et al. 1991” and J. Virology 65:1105-1113: “Structure and characterization of the Hepatitis C virus genome isolated from human carriers,” both references are hereby incorporated by reference.

[2] = biological target: T1, NS5B from the BK strain (genotype 1b) (Hepatitis C virus genotype 1b, UniProt P26663); assay: Hepatitis C polymerase (NS5B, BK strain) inhibition, radioactive filter assay; assay type: biochemical; conditions: NS5B BK strain (genotype 1b)
T1 construct: NS5B from the BK strain (genotype 1b) is expressed in E coli as a protein in which the 21 C-terminal amino acids are replaced; made in house; host or cells: E. coli
Text: as §1
NS5B from the BK strain (genotype 1b) is expressed in E coli as a protein in which the 21 C-terminal amino acids are replaced with a short linker and a hexahistidine tag ([…]). The purified protein is mixed with radioactive nucleotides and allowed to replicate a heteropolymeric RNA substrate, primed by an endogenous short hairpin, resulting in an approximately 760 nt product. The radioactive product is captured on a filter and quantitated after removal of the unincorporated nucleotides.
as §2, §3, §4, §5, §6, §7, §8, §9

T1 sequence (P26663 2420-2989): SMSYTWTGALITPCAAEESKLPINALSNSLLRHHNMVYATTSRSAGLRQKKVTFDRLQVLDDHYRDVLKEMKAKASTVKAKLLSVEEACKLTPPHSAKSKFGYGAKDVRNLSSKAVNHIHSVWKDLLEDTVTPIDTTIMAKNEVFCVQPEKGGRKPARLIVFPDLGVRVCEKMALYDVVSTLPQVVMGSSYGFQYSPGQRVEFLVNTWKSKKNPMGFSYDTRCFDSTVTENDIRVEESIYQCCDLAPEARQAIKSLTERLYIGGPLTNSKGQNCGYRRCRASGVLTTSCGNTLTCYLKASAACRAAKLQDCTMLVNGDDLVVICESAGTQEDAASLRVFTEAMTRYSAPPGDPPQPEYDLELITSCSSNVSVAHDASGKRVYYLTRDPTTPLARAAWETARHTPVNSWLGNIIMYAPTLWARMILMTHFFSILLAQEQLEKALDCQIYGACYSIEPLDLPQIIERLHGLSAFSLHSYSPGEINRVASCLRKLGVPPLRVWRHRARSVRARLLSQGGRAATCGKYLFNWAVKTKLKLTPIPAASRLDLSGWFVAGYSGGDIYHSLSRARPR
BB7 RNA-dependent RNA polymerase hepatitis C virus protein (Con1 HCV sequence), sequence (Q9WMX2 2420-3010): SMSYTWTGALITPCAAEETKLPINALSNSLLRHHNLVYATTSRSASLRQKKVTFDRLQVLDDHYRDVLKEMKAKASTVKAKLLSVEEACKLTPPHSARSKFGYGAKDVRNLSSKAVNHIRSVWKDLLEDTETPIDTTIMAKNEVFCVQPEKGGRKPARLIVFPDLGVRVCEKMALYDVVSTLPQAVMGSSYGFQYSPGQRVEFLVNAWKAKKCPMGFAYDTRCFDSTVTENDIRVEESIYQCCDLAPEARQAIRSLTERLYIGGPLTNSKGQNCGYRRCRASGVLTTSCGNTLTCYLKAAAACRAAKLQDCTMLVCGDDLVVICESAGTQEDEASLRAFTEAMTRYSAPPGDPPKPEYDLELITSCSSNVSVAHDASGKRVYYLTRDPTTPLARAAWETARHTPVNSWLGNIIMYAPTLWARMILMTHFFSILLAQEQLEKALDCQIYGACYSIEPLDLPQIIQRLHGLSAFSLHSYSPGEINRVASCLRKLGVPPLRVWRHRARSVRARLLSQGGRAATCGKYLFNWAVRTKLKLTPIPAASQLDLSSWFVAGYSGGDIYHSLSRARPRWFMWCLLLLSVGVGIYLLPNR

SMILES | pIC50 [1] | pIC50 [2]
CCCC1(CC(=O)O)OCCc2c1[nH]c1c(C)c(CO[C@H]3CCOC3)cc(C#N)c21 (mixture of isomers) [Example 13, (3′S,1S*)[5-Cyano-8-methyl-1-propyl-7-(tetrahydro-furan-3-yloxymethyl)-1,3,4,9-tetrahydro-pyrano[3,4-b]indol-1-yl]-acetic acid] | 5.30 to 6.30 | 5.30 to 6.30
CCCC1(CC(=O)O)OCCc2c1[nH]c1c(C)c(CO[C@@H]3CCOC3)cc(C#N)c21 (mixture of isomers) [Example 14, (3′R,1S*)[5-Cyano-8-methyl-1-propyl-7-(tetrahydro-furan-3-yloxymethyl)-1,3,4,9-tetrahydro-pyrano[3,4-b]indol-1-yl]-acetic acid] | 5.30 to 6.30 | 5.30 to 6.30
CCOCCOc1cc(C#N)c2c3c([nH]c2c1C)C(CC(=O)O)([C@@H](C)CC)OCC3 (mixture of isomers) [Example 33, (1R*,10S)-[1-sec-Butyl-5-cyano-7-(2-ethoxy-ethoxy)-8-methyl-1,3,4,9-tetrahydro-pyrano[3,4-b]indol-1-yl]-acetic acid] | > 6.30 | > 6.30
CC[C@H](C)C1(CC(=O)O)OCCc2c1[nH]c1c(C)c(OCCOC(C)C)cc(C#N)c21 (mixture of isomers) [Example 34, (1R*,10S)-[1-sec-Butyl-5-cyano-7-(2-isopropoxy-ethoxy)-8-methyl-1,3,4,9-tetrahydro-pyrano[3,4-b]indol-1-yl]-acetic acid] | > 6.30 | > 6.30
CC[C@H](C)C1(CC(=O)O)OCCc2c1[nH]c1c(C)c(OCc3nsc(N(C)C)n3)cc(C#N)c21 (mixture of isomers) [Example 35, (1R*,10S)-[1-sec-Butyl-5-cyano-7-(5-dimethylamino-[1,2,4]thiadiazol-3-ylmethoxy)-8-methyl-1,3,4,9-tetrahydro-pyrano[3,4-b]indol-1-yl]-acetic acid] | > 6.30 | > 6.30
CCCC1(CC(=O)O)OCCc2c1[nH]c1c(C)c(CO)cc(C#N)c21 (stereo not shown) [Example 1, (5-Cyano-7-hydroxymethyl-8-methyl-1-propyl-1,3,4,9-tetrahydro-pyrano[3,4-b]indol-1-yl)-acetic acid] | > 6.30 | > 6.30
CCCC1(CC(=O)O)OCCc2c1[nH]c1c(C)c(COC)cc(C#N)c21 (stereo not shown) [Example 2, (5-Cyano-7-methoxymethyl-8-methyl-1-propyl-1,3,4,9-tetrahydro-pyrano[3,4-b]indol-1-yl)-acetic acid] | > 6.30 | 5.30 to 6.30
CCCC1(CC(=O)O)OCCc2c1[nH]c1c(C)c(COCC)cc(C#N)c21 (stereo not shown) [Example 3, (5-Cyano-7-ethoxymethyl-8-methyl-1-propyl-1,3,4,9-tetrahydro-pyrano[3,4-b]indo-1-yl)-acetic acid] | > 6.30 | 5.30 to 6.30
CCCOCc1cc(C#N)c2c3c([nH]c2c1C)C(CCC)(CC(=O)O)OCC3 (stereo not shown) [Example 4, (5-Cyano-8-methyl-7-propoxymethyl-1-propyl-1,3,4,9-tetrahydro-pyrano[3,4-b]indol-1-yl)-acetic acid] | > 6.30 | 5.30 to 6.30
CCCC1(CC(=O)O)OCCc2c1[nH]c1c(C)c(COC(C)C)cc(C#N)c21 (stereo not shown) [Example 5, (5-Cyano-7-isopropoxymethyl-8-methyl-1-propyl-1,3,4,9-tetrahydro-pyrano[3,4-b]indol-1-yl)-acetic acid] | > 6.30 | 5.30 to 6.30
CCCC1(CC(=O)O)OCCc2c1[nH]c1c(C)c(COC3CCC3)cc(C#N)c21 (stereo not shown) [Example 6, (5-Cyano-7-cyclobutoxymethyl-8-methyl-1-propyl-1,3,4,9-tetrahydro-pyrano[3,4-b]indol-1-yl)-acetic acid] | > 6.30 | 5.30 to 6.30
CCCC1(CC(=O)O)OCCc2c1[nH]c1c(C)c(COC3CCCCC3)cc(C#N)c21 (stereo not shown) [Example 7, (5-Cyano-7-cyclohexyloxymethyl-8-methyl-1-propyl-1,3,4,9-tetrahydro-pyrano[3,4-b]indol-1-yl)-acetic acid] | 5.30 to 6.30 | 5.30 to 6.30
CCCC1(CC(=O)O)OCCc2c1[nH]c1c(C)c(COCC3CC3)cc(C#N)c21 (stereo not shown) [Example 8, (5-Cyano-7-cyclopropylmethoxymethyl-8-methyl-1-propyl-1,3,4,9-tetrahydro-pyrano[3,4-b]indol-1-yl)-acetic acid] | > 6.30 | 5.30 to 6.30
CCCC1(CC(=O)O)OCCc2c1[nH]c1c(C)c(COCC3CCC3)cc(C#N)c21 (stereo not shown) [Example 9, (5-Cyano-7-cyclobutylmethoxymethyl-8-methyl-1-propyl-1,3,4,9-tetrahydro-pyrano[3,4-b]indol-1-yl)-acetic acid] | 5.30 to 6.30 | 5.30 to 6.30
CCCC1(CC(=O)O)OCCc2c1[nH]c1c(C)c(COCC3CCCC3)cc(C#N)c21 (stereo not shown) [Example 10, (5-Cyano-7-cyclopentylmethoxymethyl-8-methyl-1-propyl-1,3,4,9-tetrahydro-pyrano[3,4-b]indol-1-yl)-acetic acid] | 5.30 to 6.30 | 5.30 to 6.30
CC#CCOCc1cc(C#N)c2c3c([nH]c2c1C)C(CCC)(CC(=O)O)OCC3 (stereo not shown) [Example 11, (7-But-2-ynyloxymethyl-5-cyano-8-methyl-1-propyl-1,3,4,9-tetrahydro-pyrano[3,4-b]indol-1-yl)-acetic acid] | 5.30 to 6.30 | 5.30 to 6.30
CCCC1(CC(=O)O)OCCc2c1[nH]c1c(C)c(COCc3ccc4c(c3)OCO4)cc(C#N)c21 (stereo not shown) [Example 16, [7-(Benzo[1,3]dioxol-5-ylmethoxymethyl)-5-cyano-8-methyl-1-propyl-1,3,4,9-tetrahydro-pyrano[3,4-b]indol-1-yl]-acetic acid] | > 6.30 | 5.30 to 6.30
CCCC1(CC(=O)O)OCCc2c1[nH]c1c(C)c(COCc3ccc(C)cc3C)cc(C#N)c21 (stereo not shown) [Example 17, [5-Cyano-7-(2,4-dimethyl-benzyloxymethyl)-8-methyl-1-propyl-1,3,4,9-tetrahydro-pyrano[3,4-b]indol-1-yl]-acetic acid] | < 5.30 | 5.30 to 6.30
CCCC1(CC(=O)O)OCCc2c1[nH]c1c(C)c(COCc3ccsc3)cc(C#N)c21 (stereo not shown) [Example 18, [5-Cyano-8-methyl-1-propyl-7-(thiophen-3-ylmethoxymethyl)-1,3,4,9-tetrahydro-pyrano[3,4-b]indol-1-yl]-acetic acid] | > 6.30 | 5.30 to 6.30
CCCC1(CC(=O)O)OCCc2c1[nH]c1c(C)c(COCc3sc(C)nc3C)cc(C#N)c21 (stereo not shown) [Example 19, [5-Cyano-7-(2,4-dimethyl-thiazol-5-ylmethoxymethyl)-8-methyl-1-propyl-1,3,4,9-tetrahydro-pyrano[3,4-b]indol-1-yl]-acetic acid] | 5.30 to 6.30 | 5.30 to 6.30
